Measured values: publication PMC3001719, “The heme sensing response regulator HssR in Staphylococcus aureus but not the homologous RR23 in Listeria monocytogenes modulates susceptibility to the antimicrobial peptide plectasin” (BMC Microbiology, 2010)

Columns and labels:
[1] = tested on: L. monocytogenes wild type and response regulator mutant; assay: Antibiotic susceptibility, commercial MIC technique (Trek); assay type: cell-based, Listeria monocytogenes; settings: dehydrated antimicrobials in microtitre wells, data not shown
Protocol: (§1) Antimicrobial susceptibility to ampicillin, gentamicin, sulfa/trimethoprim, rifampicin, tetracycline, amoxy/clavulan, cephalotin, clindamycin, enrofloxacin, fusidic acid and oxacillin was performed with a commercially available MIC technique using dehydrated antimicrobials in microtitre wells (Trek Diagnostic Systems Ltd., UK).

[2] = tested on: S. aureus wild type and response regulator mutants; assay: as above; assay type: cell-based, Staphylococcus aureus; settings: dehydrated antimicrobials in microtitre wells, data not shown
Protocol: as §1

[3] = tested on: S. aureus 15981 wild type; assay: MIC, microbroth dilution; assay type: cell-based, Staphylococcus aureus; settings: MHB pH 7.4, 5.0 × 10^5 CFU/ml, 18-24 h at 37°C, visual growth
Protocol: (§2) Protamine was purchased from Sigma (P4020-5G). Plectasin, eurocin, novicidin, and novispirin G10 were supplied by Department of Antiinfective Discovery, Novozymes A/S. The host defence peptides were dissolved in 0.01% acetic acid/0.1% bovine serum albumin (Sigma, A7906).
(§3) Minimal inhibitory concentrations (MIC) of plectasin, eurocin, protamine, novicidin, and novispirin G10 were determined using a microbroth dilution method. Colonies from a BHI plate incubated overnight at 37 °C were suspended in MHB pH 7.4 to an absorbance at 546 nm of 0.11-0.12 at 546 nm (approx. 1.0 × 10^8 CFU/ml) and diluted in MHB to a concentration of 5.0 × 10^5 CFU/ml. Ninety μl of bacterial suspension was incubated with 10 μl of peptide solution in polypropylene 96-well plates (Nunc, 442587) for 18-24 h at 37°C. The peptide solutions were made fresh on the day of assay. The range of concentrations assayed were 0.25-256 μg/ml for plectasin and eurocin, 0.125-128 μg/ml for protamine and novispirin G10, and 0.031-32 μg/ml for novicidin. MIC was the lowest peptide concentration at which visual growth was inhibited.

[4] = tested on: S. aureus 8325-4 hssR (transduced mutant); assay: MIC, microbroth dilution; assay type: cell-based, Staphylococcus aureus; settings: transduced 8325-4 hssR mutant, MHB pH 7.4, 5.0 × 10^5 CFU/ml, 18-24 h at 37°C, visual growth
Protocol: as §2, §3

[5] = tested on: S. aureus 15981 ΔTCS15 (hssRS) deletion mutant; assay: MIC, microbroth dilution; assay type: cell-based, Staphylococcus aureus; settings: MHB pH 7.4, 5.0 × 10^5 CFU/ml, 18-24 h at 37°C, visual growth
Protocol: as §2, §3

[6] = tested on: S. aureus 8325-4 hssR::bursa/pRMC2-hssRS (complementation of hssR transposon mutant); assay: MIC, microbroth dilution; assay type: cell-based, Staphylococcus aureus; settings: 8325-4 hssR::bursa/pRMC2-hssRS complemented mutant; microbroth dilution, MHB pH 7.4, 5.0 × 10^5 CFU/ml, 18-24 h at 37°C, visual growth
Protocol: as §2, §3

[7] = tested on: S. aureus 8325-4 hssR::bursa transposon mutant; assay: MIC, microbroth dilution; assay type: cell-based, Staphylococcus aureus; settings: MHB pH 7.4, 5.0 × 10^5 CFU/ml, 18-24 h at 37°C, visual growth
Protocol: as §2, §3

[8] = tested on: S. aureus 8325-4 wild type; assay: MIC, microbroth dilution; assay type: cell-based, Staphylococcus aureus; settings: MHB pH 7.4, 5.0 × 10^5 CFU/ml, 18-24 h at 37°C, visual growth
Protocol: as §2, §3

L. monocytogenes = assay: ATP leakage (intracellular and extracellular ATP, bioluminescence); assay type: cell-based, Listeria monocytogenes; settings: 50 mM HEPES pH 7.0 with 0.2% glucose, vs peptide dilution buffer; for ATP leakage: L. monocytogenes, 1,000 μg/ml peptide
Protocol: (§4) L. monocytogenes and S. aureus were grown in TSB at 37°C. Bacteria were harvested (10 min at 3000 RPM) at mid-exponential phase (absorbance at 546 nm of 2.5 ± 0.2 and 1.0 ± 0.2 for S. aureus and L. monocytogenes, respectively), washed once in 50 mM potassium phosphate buffer pH 7.0 and once in 50 mM HEPES buffer pH 7.0. The pellet was resuspended in 50 mM HEPES pH 7.0 to a final absorbance at 546 nm of 10. Bacteria were stored on ice and used within 5 hours. […] ATP was determined using a bioluminescence kit (Sigma, FLAA-1KT) and a BioOrbit 1253 luminometer. Total ATP content was determined by rapidly permeabilising 20 μl cell suspension with 80 μl dimethyl sulfoxide. The cell suspension was diluted in 4.9 ml sterile water, and ATP content was determined in 100 μl of the preparation as described by the manufacturer. To determine the extracellular ATP concentration, the 20 μl cell suspension was mixed with 80 μl sterile water and analyzed as described above. Intracellular ATP concentrations were calculated by using the intracellular volumes of 0.85 and 1.7 μm^3 for S. aureus and L. monocytogenes, respectively. The number of cells in suspension was determined by plate spreading.

[9] = tested on: L. monocytogenes LO28 wild type; assay: MIC, microbroth dilution; assay type: cell-based, Listeria monocytogenes; settings: MHB pH 7.4, 5.0 × 10^5 CFU/ml, 18-24 h at 37°C, visual growth
Protocol: as §2, §3

S. aureus = assay: ATP leakage (intracellular and extracellular ATP, bioluminescence); assay type: cell-based, Staphylococcus aureus; settings: 50 mM HEPES pH 7.0 with 0.2% glucose, vs peptide dilution buffer, two independent experiments; for ATP leakage: S. aureus, 1,000 μg/ml peptide
Protocol: as §4

[10] = tested on: plasmid DNA (pBluescript II SK+); assay: DNA-binding analysis by in vitro gel retardation; settings: 100 ng plasmid DNA with increasing amounts of peptide, 1 h at room temperature, data not shown
Protocol: Gel retardation analysis were performed as described by Nan et al by mixing 100 ng of plasmid DNA (pBluescript II SK^+(Stratagene)) with increasing amounts of peptide in 20 μl binding buffer (5% glycerol, 10 mM Tris, 1 mM EDTA, 1 mM dithiothreitol, 20 mM KCL and 50 μg ml^-1 bovine serum albumin). Reaction mixtures were incubated 1 h at room temperature and subjected to 1% agarose gel electrophoresis and visualised using ethidium bromide.

[11] = tested on: S. aureus 8325-4 hssR mutant; assay: Growth in TSB with plectasin and/or hemin; assay type: cell-based, Staphylococcus aureus; settings: hemin 4 μM, 37°C, with or without plectasin, hssR mutant
Protocol: (§5) Overnight cultures of S. aureus were diluted to an absorbance at 600 nm of 0.05 in TSB with and without 4 μM hemin and/or 35 μg/ml plectasin and grown at 37°C. Measurements of the absorbance were made every 30 minutes.

[12] = tested on: S. aureus 8325-4 wild type; assay: Growth in TSB with plectasin and/or hemin; assay type: cell-based, Staphylococcus aureus; settings: hemin 4 μM, 37°C, absorbance at 600 nm
Protocol: as §5

[13] = tested on: hrtAB efflux system expression; settings: exposure to hemin, transcriptional activation by HssR; cited from earlier work
From the text: Both HrtAB and HssRS are required for growth of S. aureus in hemin [14].

[14] = tested on: L. monocytogenes LO28 RR23 (rr23 insertion mutant); assay: MIC, microbroth dilution; assay type: cell-based, Listeria monocytogenes; settings: MHB pH 7.4, 5.0 × 10^5 CFU/ml, 18-24 h at 37°C, visual growth
Protocol: as §2, §3

Compound: CC1(C)S[C@@H]2[C@H](NC(=O)[C@H](N)c3ccccc3)C(=O)N2[C@H]1C(=O)O [ampicillin]
- Change in MIC, wild type vs response regulator mutant [1]: No change in MIC values
- Change in MIC, wild type vs response regulator mutants [2]: No change in MIC values

Compound: CC(=O)OCC1=C(C(=O)O)N2C(=O)[C@@H](NC(=O)Cc3cccs3)[C@H]2SC1 [cephalotin]
- Change in MIC, wild type vs response regulator mutant [1]: No change in MIC values
- Change in MIC, wild type vs response regulator mutants [2]: No change in MIC values

Compound: CCC[C@@H]1C[C@@H](C(=O)N[C@@H]([C@H]2O[C@H](SC)[C@H](O)[C@@H](O)[C@H]2O)[C@H](C)Cl)N(C)C1 [clindamycin]
- Change in MIC, wild type vs response regulator mutant [1]: No change in MIC values
- Change in MIC, wild type vs response regulator mutants [2]: No change in MIC values

Compound: CCN1CCN(c2cc3c(cc2F)c(=O)c(C(=O)O)cn3C2CC2)CC1 [enrofloxacin]
- Change in MIC, wild type vs response regulator mutant [1]: No change in MIC values
- Change in MIC, wild type vs response regulator mutants [2]: No change in MIC values

Compound: CC(=O)O[C@H]1C[C@@]2(C)[C@@H](C[C@@H](O)[C@H]3[C@@]4(C)CC[C@@H](O)[C@@H](C)[C@@H]4CC[C@@]32C)/C1=C(\CCC=C(C)C)C(=O)O [fusidic acid]
- Change in MIC, wild type vs response regulator mutant [1]: No change in MIC values
- Change in MIC, wild type vs response regulator mutants [2]: No change in MIC values

Compound: CNC(C)C1CCC(N)C(OC2C(N)CC(N)C(OC3OCC(C)(O)C(NC)C3O)C2O)O1 (centres unmarked) [gentamicin]
- Change in MIC, wild type vs response regulator mutant [1]: No change in MIC values
- Change in MIC, wild type vs response regulator mutants [2]: No change in MIC values

Compound: Cc1onc(-c2ccccc2)c1C(=O)N[C@@H]1C(=O)N2[C@@H]1SC(C)(C)[C@@H]2C(=O)O [oxacillin]
- Change in MIC, wild type vs response regulator mutant [1]: No change in MIC values
- Change in MIC, wild type vs response regulator mutants [2]: No change in MIC values

Compound: CO[C@H]1/C=C/O[C@@]2(C)Oc3c(C)c(O)c4c(O)c(c(/C=N/N5CCN(C)CC5)c(O)c4c3C2=O)NC(=O)/C(C)=C\C=C\[C@H](C)[C@H](O)[C@@H](C)[C@@H](O)[C@@H](C)[C@H](OC(C)=O)[C@@H]1C [rifampicin]
- Change in MIC, wild type vs response regulator mutant [1]: No change in MIC values
- Change in MIC, wild type vs response regulator mutants [2]: No change in MIC values

Compound: CN(C)[C@@H]1C(O)=C(C(N)=O)C(=O)[C@@]2(O)C(O)=C3C(=O)c4c(O)cccc4[C@@](C)(O)[C@H]3C[C@@H]12 [tetracycline]
- Change in MIC, wild type vs response regulator mutant [1]: No change in MIC values
- Change in MIC, wild type vs response regulator mutants [2]: No change in MIC values

Compound: eurocin
- MIC [3]: 8 µg/mL
- MIC [4]: 64 µg/mL
- MIC [5]: 32 µg/mL
- MIC [6]: 32 µg/mL
- MIC [7]: 64 µg/mL
- MIC [8]: 32 µg/mL
- ATP leakage (intracellular ATP concentration) (L. monocytogenes; L. monocytogenes, 500 μg/ml peptide): remained at the same level as the controls
- MIC [9]: 128 µg/mL
- ATP leakage (intracellular ATP concentration) (S. aureus; S. aureus, 500 μg/ml peptide): remained at the same level as the controls
- Binding to DNA [10]: unable to demonstrate binding

Compound: hemin
- Growth in the presence of hemin [11]: almost completely inhibited
- Growth in the presence of hemin [12]: only affected by plectasin (35 μg/ml) and not hemin
- Increase of expression of hrtAB efflux system [13]: 45 fold

Compound: novicidin
- MIC [3]: 1 µg/mL
- MIC [4]: 1 µg/mL
- MIC [5]: 1 µg/mL
- MIC [7]: 1 µg/mL
- MIC [8]: 1 µg/mL
- ATP leakage (L. monocytogenes): increased ATP leakage
- MIC [9]: 1 µg/mL
- MIC [14]: 1 µg/mL
- ATP leakage (S. aureus): increased ATP leakage

Compound: novispirin G10
- MIC [3]: >128 µg/mL
- MIC [8]: 128 µg/mL
- MIC [9]: 16 µg/mL
- MIC [14]: 16 µg/mL

Compound: protamine
- MIC [3]: 16 µg/mL
- MIC [4]: 16 µg/mL
- MIC [5]: 16 µg/mL
- MIC [7]: 16 µg/mL
- MIC [8]: 16 µg/mL
- ATP leakage (L. monocytogenes): increased ATP leakage
- MIC [9]: 16 µg/mL
- MIC [14]: 16 µg/mL
- ATP leakage (S. aureus): increased ATP leakage
